# According to article PMC12214830, “The human RIF1-Long isoform interacts with BRCA1 to promote recombinational fork repair under DNA replication stress” (Nature Communications, 2025):
# Columns and labels:
# Format in all cases: cell-based, human
# GFP-RIF1-L-pp1bs foci = experiment: co-localisation of RIF1-L-pp1bs foci with BRCA1, γH2AX, RAD51, HeLa cells; details: HU 4 mM 24 h
# Procedure: (§1) Cells were grown on glass coverslips and treated as desired. Cells were then permeabilized with 0.5% TritonX-100 in PBS for 7 min on ice, and fixed with 4% w/v formaldehyde solution (Sigma HT5012) for 10 min at room temperature (RT). After fixation, coverslips were blocked with 3% BSA in PBS (RT, 1 h), incubated with primary antibodies (RT, 2 h), washed with PBS three times and incubated with secondary antibodies (RT, 1 h). Primary antibodies used for immunofluorescence include anti-γH2A.X (20E3) (Cell Signalling Technology, 9718. 1:500); anti-RPA32/RPA2 (9H8) (Abcam, ab2175. 1:200); anti-RAD51 (H92) (Santa Cruz Biotechnology, sc-8349. 1:100); anti-BrdU (B44) (BD Biosciences, 347580. 1:100); Coverslips were then mounted on glass slides with mounting medium with DAPI. Images were captured by either standard (Zeiss Axio Imager) or confocal (Zeiss LSM-880) microscopy. Fluorescence signal intensities within each nucleus were analysed by CellProfiler software with custom-made pipelines. Co-localisation analyses were performed with custom-made CellProfiler pipelines. Briefly, nuclei were identified and used to create masks. Nuclear RIF1-L-pp1bs, BRCA1, γH2AX, RAD51 foci were identified as objects using Otsu thresholding. ‘Relate objects’ function (defining RIF1-L-pp1bs foci as parent object and foci of other proteins as children object) was used to measure the percentage of RIF1-L-pp1bs foci co-localised with other proteins.
# RAD51 foci = RAD51 foci formation, HeLa cells; details: 24 h HU 4 mM
# Procedure: Cells were grown on glass coverslips and treated as desired. Cells were then permeabilized with 0.5% TritonX-100 in PBS for 7 min on ice, and fixed with 4% w/v formaldehyde solution (Sigma HT5012) for 10 min at room temperature (RT). After fixation, coverslips were blocked with 3% BSA in PBS (RT, 1 h), incubated with primary antibodies (RT, 2 h), washed with PBS three times and incubated with secondary antibodies (RT, 1 h). […] Fluorescence signal intensities within each nucleus were analysed by CellProfiler software with custom-made pipelines. […]
# For proximity ligation assays and immunofluorescence signal intensity measurements, when comparing between two samples, statistical significance of differences was calculated by Mann-Whitney test for non-parametric distributions using GraphPad Prism software (v.9). When comparing among three or more samples, p values were calculated by Kruskal-Wallis test for non-parametric distributions with Dunn’s multiple comparisons using GraphPad Prism software (v.9). For RIF1 foci formation analysis (Fig. 6B), p values were calculated by two-tailed Student’s t test. For nuclear BRCA1 intensity fold change analyses (Fig. 6C, D), p values were calculated by two-tailed one-sample t test using GraphPad Prism software (v.9). For RAD51 foci formation analyses (Fig. 7B, E and Supplementary Fig. 7B), p values were calculated by chi-square test. […]
# HCT116 cells = experiment: colony formation (clonogenic survival) assay, HCT116 cells
# Procedure: For HCT116-derived cells, cells were plated in 6-well plates at 250 cells/well, in triplicate for each drug concentration. Cells were incubated with drugs for 24 h, after which drug-containing medium was replaced with drug-free medium. Seven days later colony counting was performed using a Nikon Eclipse TS100 microscope. For the IR sensitivity test, cells were plated following the same procedure, then irradiated at desired doses and incubated for 7 days before colony counting. Clusters with more than 20 cells were counted as colonies. Mean and standard error of each triplicate was calculated.
# [1] = tested on: GFP-RIF1-L / GFP-RIF1-L-pp1bs foci; experiment: GFP-RIF1 foci formation, HeLa cells; details: HU 4 mM 24 h
# Procedure: as §1, with “Nuclear RIF1-L-pp1bs, BRCA1, γH2AX, RAD51 foci were identified as objects using Otsu thresholding. ‘Relate objects’ function (defining RIF1-L-pp1bs foci as parent object and foci of other proteins as children object) was used to measure the percentage of RIF1-L-pp1bs foci co-localised with other proteins.” left out
# [2] = tested on: RIF1-BRCA1 proximity in HeLa cells; experiment: RIF1-BRCA1 proximity ligation assay, HeLa cells
# Procedure: Proximity ligation assays were performed using the Duolink In Situ PLA Fluorescence Protocol (Sigma-Aldrich, DUO92101) following the manufacturer’s instruction. Cells were grown on glass coverslips and treated as indicated for specific experiments. Cells were then permeabilized with 0.5% TritonX-100 in PBS for 10 min on ice, and fixed with 3% formaldehyde, 2% sucrose in PBS for 10 min at room temperature (RT). After fixation, coverslips were blocked in 3% BSA in PBS for 1 h at RT and incubated with primary antibodies (anti-RIF1, Bethel laboratories A300-568A, 1:1000 dilution; anti-BRCA1, Santa Cruz Biotechnologies, sc-6954, 1:200 dilution), for 1 h at RT in a humidity chamber. Primary antibodies were then washed off with PLA washing buffer A supplied in the Duolink In Situ PLA kit. Coverslips were next incubated sequentially with PLA Probes (1 h at 37 °C), ligation solution (30 min at 37 °C) and amplification solution (100 min at 37 °C), with washes by washing buffer A in between each step. At the end of incubation, coverslips were washed with washing buffer B supplied in the Duolink In Situ PLA kit. Coverslips were then mounted on glass slides with PLA Mounting medium with DAPI. Images were captured by fluorescence microscopy (Zeiss Axio Imager). PLA foci number in each nucleus were analysed by CellProfiler Software[74] with a custom-made pipeline.
# For proximity ligation assays and immunofluorescence signal intensity measurements, when comparing between two samples, statistical significance of differences was calculated by Mann-Whitney test for non-parametric distributions using GraphPad Prism software (v.9). When comparing among three or more samples, p values were calculated by Kruskal-Wallis test for non-parametric distributions with Dunn’s multiple comparisons using GraphPad Prism software (v.9). For RIF1 foci formation analysis (Fig. 6B), p values were calculated by two-tailed Student’s t test. For nuclear BRCA1 intensity fold change analyses (Fig. 6C, D), p values were calculated by two-tailed one-sample t test using GraphPad Prism software (v.9). For RAD51 foci formation analyses (Fig. 7B, E and Supplementary Fig. 7B), p values were calculated by chi-square test. For HR Reporter assay analysis (Fig. 7G and Supplementary Fig. 7L), p values were calculated by two-tailed paired Student’s t test. For micronuclei frequency analysis (Fig. 7H), p values were calculated by one-tailed paired Student’s t test. All Student’s t tests were performed with Excel T.TEST function. Chi-square tests were performed with the online Chi-square test calculator at https://www.socscistatistics.com/tests/chisquare2/default2.aspx. Sample number n for all box-and-whisker plots and dot plots are listed in Supplementary Data 1.
# RPA = experiment: chromatin-bound RPA immunofluorescence, RPE-1 cells; details: HU 4 mM 24 h
# Procedure: as §1, with “Nuclear RIF1-L-pp1bs, BRCA1, γH2AX, RAD51 foci were identified as objects using Otsu thresholding. ‘Relate objects’ function (defining RIF1-L-pp1bs foci as parent object and foci of other proteins as children object) was used to measure the percentage of RIF1-L-pp1bs foci co-localised with other proteins.” left out
# [3] = Fig 5G/H, HeLa RIF1 KO + RIF1-L-pp1bs, HU 4 mM 24 h
# [4] = Fig 5G/H, HeLa RIF1 KO + RIF1-L, HU 4 mM 24 h
# [5] = Fig 5G/H, HeLa RIF1 KO, HU 4 mM 24 h
# [6] = Fig S3F, HeLa RIF1-L-APKF, HU 4mM 24hr
# [7] = Fig S3F, HeLa RIF1-L, HU 4mM 24hr
# [8] = Fig S3F, HeLa RIF1-S, HU 4mM 24hr
# [9] = Fig S4H, HeLa +RIF1-L, HU 4mM 24hr
# [10] = Fig S4I, HeLa +RIF1-L, HU 4mM 24hr
# [11] = Fig S5G (repeat), HeLa RIF1 WT (RIF1-L), HU 4mM 24hr
# [12] = Fig S5G (repeat), HeLa RIF1 pp1bs, HU 4mM 24hr
# [13] = Fig S5I, HeLa RIF1-L-pp1bs-APKF, HU 4mM 24hr
# [14] = Fig S5I, HeLa RIF1-L-pp1bs, HU 4mM 24hr
smiles,measurement,setting,value
"NC(=O)NO [HU, hydroxyurea]",RIF1-L-pp1bs foci co-localised with RAD51 and BRCA1,GFP-RIF1-L-pp1bs foci,~ 20%
same,RIF1-L-pp1bs foci colocalised with both BRCA1 and γH2AX,GFP-RIF1-L-pp1bs foci,Approximately 40%
same,RIF1-L-pp1bs foci overlapping BRCA1 signal,GFP-RIF1-L-pp1bs foci,50–60%
same,RIF1-L-pp1bs foci overlapping γH2AX foci,GFP-RIF1-L-pp1bs foci,~ 50%
same,proportion of cells containing RAD51 foci,RAD51 foci,greatly increased
same,"colony survival, RIF1-L cells","HCT116 cells; HCT116 expressing only RIF1-L, versus RIF1-WT",RIF1-L conferred resistance comparable to RIF1-WT
same,"colony survival, RIF1-S cells","HCT116 cells; HCT116 expressing only RIF1-S, versus RIF1-KO",exhibited hypersensitivity to these drugs similar to RIF1-KO cells
same,HU-treated cells with distinct GFP-RIF1-L-pp1bs foci,[1]; HeLa GFP-RIF1-L-pp1bs,~ 70%
same,HU-treated cells with clear GFP-RIF1-L foci,[1]; HeLa GFP-RIF1-L,~ 10%
same,"RIF1-BRCA1 PLA foci per nucleus, mean",[2]; [3],45.51
same,"RIF1-BRCA1 PLA foci per nucleus, median",[2]; [3],42
same,"RIF1-BRCA1 PLA foci per nucleus, mean",[2]; [4],27.55
same,"RIF1-BRCA1 PLA foci per nucleus, median",[2]; [4],21
same,"RIF1-BRCA1 PLA foci per nucleus, mean",[2]; [5],1.394
same,"RIF1-BRCA1 PLA foci per nucleus, median",[2]; [5],1
same,"RIF1-BRCA1 PLA foci per nucleus, mean",[2]; [6],14.65
same,"RIF1-BRCA1 PLA foci per nucleus, median",[2]; [6],12
same,"RIF1-BRCA1 PLA foci per nucleus, mean",[2]; [7],18.04
same,"RIF1-BRCA1 PLA foci per nucleus, median",[2]; [7],15
same,"RIF1-BRCA1 PLA foci per nucleus, mean",[2]; [8],13.85
same,"RIF1-BRCA1 PLA foci per nucleus, median",[2]; [8],12
same,"RIF1-BRCA1 PLA foci per nucleus, mean",[2]; [9],21.43
same,"RIF1-BRCA1 PLA foci per nucleus, median",[2]; [9],20
same,"RIF1-BRCA1 PLA foci per nucleus, mean",[2]; [10],18.83
same,"RIF1-BRCA1 PLA foci per nucleus, median",[2]; [10],"2, 17, 17"
same,"RIF1-BRCA1 PLA foci per nucleus, mean",[2]; [11],40.69
same,"RIF1-BRCA1 PLA foci per nucleus, median",[2]; [11],37
same,"RIF1-BRCA1 PLA foci per nucleus, mean",[2]; [12],62.09
same,"RIF1-BRCA1 PLA foci per nucleus, median",[2]; [12],62
same,"RIF1-BRCA1 PLA foci per nucleus, mean",[2]; [13],46.58
same,"RIF1-BRCA1 PLA foci per nucleus, median",[2]; [13],42
same,"RIF1-BRCA1 PLA foci per nucleus, mean",[2]; [14],53.47
same,"RIF1-BRCA1 PLA foci per nucleus, median",[2]; [14],53
same,chromatin-bound RPA,RPA,both increased upon HU treatment
